Measured values: patent publication US20230174507A1, “IMIDAZOLE 3-OXIDE DERIVATIVE BASED ACSS2 INHIBITORS AND METHODS OF USE THEREOF” (METABOMED LTD., priority 2020, published 2023)

Columns and labels:
human ACSS2 protein = target: T1, human ACSS2 protein (Homo sapiens, UniProt Q9NR19); test: ACSS2 cell-free activity assay (pyrophosphatase-coupled, Biomol green); conditions: 10 nM human ACSS2, 90 minutes at 37 C, absorbance at 620 nm; read-out: ACSS2 Biochemical IC50
T1 construct: purchased OriGene Technologies, Inc
Experimental: ACSS2 Cell-Free Activity Assay (Cell-Free IC50)
(§1) The assay is based on a coupling reaction with Pyrophosphatase: ACSS2 is converting ATP+CoA+Acetate=>AMP+pyrophosphate+Acetyl-CoA (Ac-CoA). Pyrophosphatase converts pyrophosphate, a product of the ACSS2 reaction, to phosphate which can be detected by measuring the absorbance at 620 nm after incubation with the Biomol green reagent (Enzo life Science, BML-AK111).
(§2) Cell Free IC50 Determination:
(§3) 10 nM of human ACSS2 protein (OriGene Technologies, Inc) was incubated for 90 minutes at 37 C with various compounds' concentrations in a reaction containing 50 mM Hepes pH 7.5, 10 mM DTT, 90 mM KCl, 0.006% Tween-20, 0.1 mg/ml BSA, 2 mM MgCl2, 10 μM CoA, 5 mM NaAc, 300 μM ATP and 0.5 U/ml Pyrophosphatase (Sigma). At the end of the reaction, Biomol Green was added for 30 minutes at RT and the activity was measured by reading the absorbance at 620 nm. IC50 values were calculated using non-linear regression curve fit with 0% and 100% constrains (CDD Vault, Collaborative Drug Discovery, Inc.).

human ACSS1 protein = target: T2, human ACSS1 protein (Homo sapiens, UniProt Q9NUB1); test: ACSS1 cell-free activity assay (pyrophosphatase-coupled, Biomol green); type: biochemical; conditions: 5 nM human ACSS1, 30 minutes at room temperature, absorbance at 620 nm
T2 construct: purchased MyBioSource
T2 sequence (Q9NUB1 38-689): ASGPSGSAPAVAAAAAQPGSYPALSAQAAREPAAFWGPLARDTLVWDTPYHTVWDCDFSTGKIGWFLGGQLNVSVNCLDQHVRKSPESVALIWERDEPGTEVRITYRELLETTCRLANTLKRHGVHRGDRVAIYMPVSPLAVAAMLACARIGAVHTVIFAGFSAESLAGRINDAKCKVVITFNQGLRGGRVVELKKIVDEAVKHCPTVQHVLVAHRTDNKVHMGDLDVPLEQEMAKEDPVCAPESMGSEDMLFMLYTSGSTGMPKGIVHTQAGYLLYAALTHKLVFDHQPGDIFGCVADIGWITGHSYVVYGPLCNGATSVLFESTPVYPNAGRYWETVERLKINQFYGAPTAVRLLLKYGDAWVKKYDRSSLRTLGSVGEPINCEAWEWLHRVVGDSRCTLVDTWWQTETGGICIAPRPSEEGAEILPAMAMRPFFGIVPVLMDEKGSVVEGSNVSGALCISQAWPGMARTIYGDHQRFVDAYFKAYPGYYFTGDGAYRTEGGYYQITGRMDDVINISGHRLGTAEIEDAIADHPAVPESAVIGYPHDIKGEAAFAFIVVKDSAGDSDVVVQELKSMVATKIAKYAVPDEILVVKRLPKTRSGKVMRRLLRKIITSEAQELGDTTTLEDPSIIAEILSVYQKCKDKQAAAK
Experimental: ACSS1 Cell-Free Activity Assay (Cell-Free IC50)
as §1, with “ACSS1” for “ACSS2”
as §2
as §3, with “5 nM” for “10 nM”, “human ACSS1” for “human ACSS2”, “protein (MyBioSource)” for “protein (OriGene Technologies, Inc)”, “for 30” for “for 90”, “at room temperature” for “at 37 C”, “MgCl2, 15” for “MgCl2, 10”

T1 sequence (Q9NR19 whole entry): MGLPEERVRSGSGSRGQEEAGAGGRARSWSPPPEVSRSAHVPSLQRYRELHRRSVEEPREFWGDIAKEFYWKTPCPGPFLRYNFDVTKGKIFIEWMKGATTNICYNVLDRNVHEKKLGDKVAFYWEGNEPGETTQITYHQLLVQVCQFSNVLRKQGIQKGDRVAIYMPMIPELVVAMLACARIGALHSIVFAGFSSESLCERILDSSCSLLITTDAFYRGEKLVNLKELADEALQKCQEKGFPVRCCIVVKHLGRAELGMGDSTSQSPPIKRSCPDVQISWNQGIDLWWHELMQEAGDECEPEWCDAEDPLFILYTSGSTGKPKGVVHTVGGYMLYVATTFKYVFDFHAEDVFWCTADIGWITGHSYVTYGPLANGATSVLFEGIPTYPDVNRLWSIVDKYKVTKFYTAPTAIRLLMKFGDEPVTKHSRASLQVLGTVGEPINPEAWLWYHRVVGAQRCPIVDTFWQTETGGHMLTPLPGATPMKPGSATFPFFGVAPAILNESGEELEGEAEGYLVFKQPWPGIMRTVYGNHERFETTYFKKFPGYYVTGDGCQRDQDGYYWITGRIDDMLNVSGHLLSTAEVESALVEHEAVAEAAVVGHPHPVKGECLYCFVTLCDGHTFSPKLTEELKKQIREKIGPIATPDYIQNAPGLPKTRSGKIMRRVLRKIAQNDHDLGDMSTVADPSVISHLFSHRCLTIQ

| Structure (SMILES) | IC50 (human ACSS2 protein) | ACSS1 Biochemical IC50 (nM) (human ACSS1 protein) |
| --- | --- | --- |
| COc1ccc(-c2[nH]c(C)c(C(=O)Nc3cccc(CC(F)(F)F)c3)[n+]2[O-])cc1-c1c(C)cccc1C [Compound 194, 2-(6-methoxy-2′,6′-dimethyl-[1,1′-biphenyl]-3-yl)-5-methyl-4-((3-(2,2,2-trifluoroethyl)phenyl)carbamoyl)-1H-imidazole 3-oxide] | 1 to 30 nM | Inactive |
| CCC(F)(F)c1cccc(NC(=O)c2c(C)[nH]c(-c3ccc(OC)c(-c4cccnn4)c3C)[n+]2[O-])c1 [Compound 122, 4-((3-(1,1-difluoropropyl)phenyl)carbamoyl)-2-(4-methoxy-2-methyl-3-(pyridazin-3-yl)phenyl)-5-methyl-1H-imidazole 3-oxide] | > 30 nM | Inactive |
| COc1ccc(-c2[nH]c(C)c(C(=O)Nc3cccc(C(=O)N4CCCC4)c3)[n+]2[O-])cc1-c1c(C)cccc1C [Compound 138, 2-[3-(2,6-dimethylphenyl)-4-methoxy-phenyl]-5-methyl-3-oxido-N-[3-(pyrrolidine-1-carbonyl)phenyl]-1H-imidazol-3-ium-4-carboxamide] | > 30 nM | Inactive |
| CCC(F)(F)c1cccc(NC(=O)c2c(C)[nH]c(-c3ccc(OC)c(-c4ccncn4)c3C)[n+]2[O-])c1 [Compound 144, 4-((3-(1,1-difluoropropyl)phenyl)carbamoyl)-2-(4-methoxy-2-methyl-3-(pyrimidin-4-yl)phenyl)-5-methyl-1H-imidazole 3-oxide] | > 30 nM | Inactive |
| COc1ccc(-c2[nH]c(C)c(C(=O)Nc3cccc(C4(C(F)(F)F)CC4)c3)[n+]2[O-])cc1-c1c(C)cccc1C [Compound 206, 2-(6-methoxy-2′,6′-dimethyl-[1,1′-biphenyl]-3-yl)-5-methyl-4-((3-(1-(trifluoromethyl)cyclopropyl)phenyl)carbamoyl)-1H-imidazole 3-oxide] | > 30 nM | Inactive |
| CCCCc1cc(-c2c(C)cccc2C)cc(-c2[nH]c(C)c(C(=O)Nc3cccc(C(F)(F)C4CC4)c3)[n+]2[O-])c1 [Compound 161, 2-(5-butyl-2′,6′-dimethyl-[1,1′-biphenyl]-3-yl)-4-((3-(cyclopropyldifluoromethyl)phenyl)carbamoyl)-5-methyl-1H-imidazole 3-oxide] | < 1 nM | Inactive |
| COc1ccc(-c2[nH]c(C)c(C(=O)Nc3cccc(C(=O)N4CCCCC4)c3)[n+]2[O-])cc1-c1c(C)cccc1C [Compound 139, 2-(6-methoxy-2′,6′-dimethyl-[1,1′-biphenyl]-3-yl)-5-methyl-4-((3-(piperidine-1-carbonyl)phenyl)carbamoyl)-1H-imidazole 3-oxide] | > 30 nM | Inactive |
| CCC(F)(F)c1cccc(NC(=O)c2c(C)[nH]c(-c3ccc(OC)c(C4CCNCC4)c3)[n+]2[O-])c1 [Compound 162, 4-((3-(1,1-difluoropropyl)phenyl)carbamoyl)-2-(4-methoxy-3-(piperidin-4-yl)phenyl)-5-methyl-1H-imidazole 3-oxide] | < 1 nM | Inactive |
| CCC(F)(F)c1cccc(NC(=O)c2c(C)[nH]c(-c3ccc(OC)c(-c4c(C(F)(F)F)cccc4C(F)(F)F)c3)[n+]2[O-])c1 [Compound 128, 4-((3-(1,1-difluoropropyl)phenyl)carbamoyl)-2-(6-methoxy-2′,6′-bis(trifluoromethyl)-[1,1′-biphenyl]-3-yl)-5-methyl-1H-imidazole 3-oxide] | 1 to 30 nM | Inactive |
| CCC(F)(F)c1cccc(NC(=O)c2c(C)[nH]c(-c3ccc(OC)c(-c4cnccn4)c3C)[n+]2[O-])c1 [Compound 127, 4-((3-(1,1-difluoropropyl)phenyl)carbamoyl)-2-(4-methoxy-2-methyl-3-(pyrazin-2-yl)phenyl)-5-methyl-1H-imidazole 3-oxide] | > 30 nM | Inactive |
| CCC(F)(F)c1cccc(NC(=O)c2c(C)n(COP(=O)(OC)OC)c(-c3ccc(OC)c(-c4c(C)cccc4C)c3)[n+]2[O-])c1 [Compound 205, 4-((3-(1,1-difluoropropyl)phenyl)carbamoyl)-1-(((dimethoxyphosphoryl)oxy)methyl)-2-(6-methoxy-2′,6′-dimethyl-[1,1′-biphenyl]-3-yl)-5-methyl-1H-imidazole 3-oxide] | > 30 nM | Inactive |
| Cc1cccc(C)c1-c1cc(Br)cc(-c2[nH]c(C)c(C(=O)Nc3cccc(C(F)(F)C4CC4)c3)[n+]2[O-])c1 [Compound 136, 2-[3-bromo-5-(2,6-dimethylphenyl)phenyl]-N-[3-[cyclopropyl(difluoro)methyl]phenyl]-5-methyl-3-oxido-1H-imidazol-3-ium-4-carboxamide] | 1 to 30 nM | Inactive |
| Cc1cccc(C)c1-c1cc(-c2ccccc2)cc(-c2[nH]c(C)c(C(=O)Nc3cccc(C(F)(F)C4CC4)c3)[n+]2[O-])c1 [Compound 133, 4-((3-(cyclopropyldifluoromethyl)phenyl)carbamoyl)-2-(2,6-dimethyl-[1,1′:3′,1″-terphenyl]-5′-yl)-5-methyl-1H-imidazole 3-oxide] | 1 to 30 nM | Inactive |
| CCC(F)(F)c1cccc(NC(=O)c2c(C)n(COC(C)=O)c(-c3ccc(OC)c(-c4c(C)cccc4C)c3)[n+]2[O-])c1 [Compound 200, 1-(acetoxymethyl)-4-((3-(1,1-difluoropropyl)phenyl)carbamoyl)-2-(6-methoxy-2′,6′-dimethyl-[1,1′-biphenyl]-3-yl)-5-methyl-1H-imidazole 3-oxide] | > 30 nM | Inactive |
| COc1ccc(-c2[nH]c(C)c(C(=O)Nc3cccc(C(O)(O)C(F)(F)F)c3)[n+]2[O-])cc1-c1c(C)cccc1C [Compound 195, 2-(6-methoxy-2′,6′-dimethyl-[1,1′-biphenyl]-3-yl)-5-methyl-4-((3-(2,2,2-trifluoro-1,1-dihydroxyethyl)phenyl)carbamoyl)-1H-imidazole 3-oxide] | > 30 nM | Inactive |
| CCC(F)(F)c1cccc(NC(=O)c2c(C)[nH]c(-c3ccc(C(C)C)c(-c4c(C)cccc4C)c3)[n+]2[O-])c1 [Compound 117, 4-((3-(1,1-difluoropropyl)phenyl)carbamoyl)-2-(6-isopropyl-2′,6′-dimethyl-[1,1′-biphenyl]-3-yl)-5-methyl-1H-imidazole 3-oxide] | 1 to 30 nM | Inactive |
| CCC(F)(F)c1cccc(NC(=O)c2c(C)[nH]c(-c3ccc(OC)c(-c4c(C)cc(CCc5ccccc5)cc4C)c3)[n+]2[O-])c1 [Compound 154, 4-((3-(1,1-difluoropropyl)phenyl)carbamoyl)-2-(6-methoxy-2′,6′-dimethyl-4′-phenethyl-[1,1′-biphenyl]-3-yl)-5-methyl-1H-imidazole 3-oxide] | > 30 nM | Inactive |
| Cc1cccc(C)c1-c1cc(-c2c(C)cccc2C)cc(-c2[nH]c(C)c(C(=O)Nc3cccc(C(F)(F)C4CC4)c3)[n+]2[O-])c1 [Compound 132, 4-((3-(cyclopropyldifluoromethyl)phenyl)carbamoyl)-5-methyl-2-(2,2″,6,6″-tetramethyl-[1,1′:3′,1″-terphenyl]-5′-yl)-1H-imidazole 3-oxide] | 1 to 30 nM | Inactive |
